This is an account of results in PMC11483378, “Triazole-Based Thiamine Analogues as Inhibitors of Thiamine Pyrophosphate-Dependent Enzymes: 1,3-Dicarboxylate for Metal Binding” (ACS Omega, 2024).

Where two headings read alike, the source gives them in different places.

The target in one data set is A. viridans PO (Aerococcus viridans, UniProt A9X9K8). Kind of data set: A. viridans PO inhibitory activity assay (quinoneimine dye). The data set is classed as biochemical. The method, then: A. viridans PO and horseradish peroxidase were purchased from Sigma. A. viridans PO activity was determined by monitoring appearance of quinoneimine dye at 550 nm using a microplate reader (CLARIOstar) and conducted as described[5] with some modifications. […] The reaction buffer (50 mM KH2PO4 and 10 mM MgCl2, pH 5.9) contained TPP at specified concentrations, 10 μM flavin adenine dinucleotide, 0.15% 4-aminoantipyrine, 0.3% N-ethyl-N-(2-hydroxy-3-sulfopropyl)-m-toluidine (EHSPT), 50 μg/mL horseradish peroxidase, and 0.35 U/mL A. viridans PO. The reaction mixture was preincubated at 37 °C with inhibitor for 30 min, and then the reaction was initiated by adding pyruvate to a final concentration of 50 mM. To determine the IC50, TPP concentration was set at 60 μM with varying inhibitor concentrations. One unit of PO activity is defined as the production of 1 μmol of hydrogen peroxide per minute. The IC50 values were calculated from nonlinear regression curve fitting using GraphPad Prism.
Chain of A. viridans PO (A9X9K8 entry or part of it): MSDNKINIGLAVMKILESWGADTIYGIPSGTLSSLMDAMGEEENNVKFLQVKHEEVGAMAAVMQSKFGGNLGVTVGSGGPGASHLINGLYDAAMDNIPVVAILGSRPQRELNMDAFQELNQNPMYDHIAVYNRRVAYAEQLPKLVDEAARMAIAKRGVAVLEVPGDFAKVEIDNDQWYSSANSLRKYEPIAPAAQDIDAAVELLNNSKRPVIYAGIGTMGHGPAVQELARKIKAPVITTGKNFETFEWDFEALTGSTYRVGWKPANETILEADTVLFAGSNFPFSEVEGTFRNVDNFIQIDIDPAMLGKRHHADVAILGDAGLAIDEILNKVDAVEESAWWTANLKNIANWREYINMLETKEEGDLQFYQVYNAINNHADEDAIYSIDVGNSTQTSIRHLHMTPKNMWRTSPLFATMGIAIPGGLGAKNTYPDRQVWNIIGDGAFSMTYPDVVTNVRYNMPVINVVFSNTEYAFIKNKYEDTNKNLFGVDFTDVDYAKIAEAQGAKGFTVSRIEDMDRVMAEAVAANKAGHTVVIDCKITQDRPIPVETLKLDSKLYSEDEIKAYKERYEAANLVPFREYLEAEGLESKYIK
(§1) Enzyme inhibitory activity assays – methods and results (Figures S1-4) […]
(§2) The compound […]
A. viridans PO inhibitory activity assay. A. viridans PO and horseradish peroxidase were purchased from Sigma. A. viridans PO activity was determined by monitoring appearance of quinoneimine dye at 550 nm using a microplate reader (CLARIOstar) and conducted as described3 with some modifications. […]
buffer (50 mM KH2PO4 and 10 mM MgCl2, pH 5.9) contained TPP at specified concentrations, 10 µM flavin adenine dinucleotide (FAD), 0.15% 4-aminoantipyrine, 0.3% N-ethyl-N-(2-hydroxy-3-sulfopropyl)-m-toluidine (EHSPT), 50 µg/mL horseradish peroxidase and 0.35 U/mL A. viridans PO. The reaction mixture was preincubated at 37 °C with inhibitor for 30 min, then reaction was initiated by adding pyruvate to a final concentration of 50 mM. To determine the IC50, TPP concentration was set was set at 60 µM with varying inhibitor concentrations. One unit of PO activity is defined as the production of 1 μmol of hydrogen peroxide per minute. The IC 50 values were calculated from non-linear regression curve fitting using GraphPad Prism. […]

The target in a further data set is E. coli OGDH E1 (Escherichia coli, UniProt P0AFG3). Kind of data set: E. coli OGDH E1 inhibitory activity assay (DCPIP reduction). The data set is classed as biochemical. As for the experimental part: E. coli OGDH E1 was from material donated by R. Frank. E. coli OGDH E1 activity was determined by monitoring DCPIP reduction at 600 nm using a microplate reader (CLARIOstar) and conducted as described[5] with some modifications. […] The reaction buffer (50 mM KH2PO4 and 2 mM MgCl2, pH 7) contained TPP at specified concentrations, 0.5 mM DCPIP, and 6.7 mg/mL E. coli OGDH E1. The reaction mixture was preincubated at 37 °C with the inhibitor for 60 min, and then the reaction was initiated by adding α-ketoglutarate to a final concentration of 10 mM. To determine the IC50, the TPP concentration was set at 60 μM with varying inhibitor concentrations. Specific activity was calculated using the molar extinction coefficient of DCPIP, 21 mM^–1 cm^–1.[28] The IC50 values were calculated from nonlinear regression curve fitting using GraphPad Prism.
Chain of E. coli OGDH E1 (P0AFG3 whole entry): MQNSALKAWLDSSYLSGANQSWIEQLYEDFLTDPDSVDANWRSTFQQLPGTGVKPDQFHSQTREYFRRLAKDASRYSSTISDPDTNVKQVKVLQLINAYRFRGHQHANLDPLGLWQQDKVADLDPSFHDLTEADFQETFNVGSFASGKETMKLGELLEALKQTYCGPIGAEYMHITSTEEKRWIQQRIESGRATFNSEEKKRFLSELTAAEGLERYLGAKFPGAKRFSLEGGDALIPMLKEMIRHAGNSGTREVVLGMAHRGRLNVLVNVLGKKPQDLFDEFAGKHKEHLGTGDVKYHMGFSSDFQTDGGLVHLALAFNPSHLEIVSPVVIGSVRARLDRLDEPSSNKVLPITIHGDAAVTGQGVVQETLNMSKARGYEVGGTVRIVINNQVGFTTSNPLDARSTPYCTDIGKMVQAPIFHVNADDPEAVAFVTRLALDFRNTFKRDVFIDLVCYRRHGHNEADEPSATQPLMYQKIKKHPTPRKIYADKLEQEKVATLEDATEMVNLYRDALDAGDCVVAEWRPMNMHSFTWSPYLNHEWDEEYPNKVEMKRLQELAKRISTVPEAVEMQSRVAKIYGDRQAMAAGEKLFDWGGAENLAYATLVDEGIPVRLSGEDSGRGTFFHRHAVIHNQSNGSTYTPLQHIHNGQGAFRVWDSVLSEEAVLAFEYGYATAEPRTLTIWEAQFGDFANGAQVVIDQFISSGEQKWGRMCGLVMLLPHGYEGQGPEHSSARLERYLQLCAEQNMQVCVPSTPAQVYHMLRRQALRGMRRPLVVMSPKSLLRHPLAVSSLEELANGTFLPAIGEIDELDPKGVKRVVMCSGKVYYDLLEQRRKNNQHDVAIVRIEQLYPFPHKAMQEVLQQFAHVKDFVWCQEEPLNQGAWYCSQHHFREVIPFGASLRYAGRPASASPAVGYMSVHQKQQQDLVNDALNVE
as §1, §2
E. coli OGDH E1 inhibitory activity assay. E. coli OGDH E1 was from material donated by R. Frank. E. coli OGDH E1 activity was determined by monitoring DCPIP reduction at 600 nm using a microplate reader (CLARIOstar) and conducted as described3 with some modifications. The percentage inhibition of compounds against E. coli OGDH E1 was assayed at 250 μM. The reaction buffer (50 mM KH 2PO4 and 2 mM MgCl2, pH 7) contained TPP at specified concentrations, 0.5 mM DCPIP, and 6.7 mg/ml E. coli OGDH E1. The reaction mixture was preincubated at 37 °C with the inhibitor for 60 min, then reaction was initiated by adding α-ketoglutarate to a final concentration of 10 mM. To determine the IC50, TPP concentration was set at 60 µM with varying inhibitor concentrations. Specific activity was […]

The nature of data set [1]: PAMPA (parallel artificial membrane permeability assay). The settings on record: for Papp at 10 h, 500 µM: PAMPA, read-out: PAMPA log Pe (converted); for Papp at 10 h, 500 µM / Fa (fraction absorbed): compounds at 500 µM, 5% DMSO in PBS pH 7.4, 10 hours, room temperature. The data set is classed as in vitro ADME.
Setting [2] is: [Compound] = 250 μM, [TPP] = 50 μM.
Setting [3] is: [Compound] = [TPP] = 250 μM; read-out: % Inhibition (1:1).
The mark [4] stands for this setting: [TPP] = 60 µM; read-out: IC50 (μM ± SEM).
The mark [5] stands for this setting: calculated from KM(TPP) 5 µM using [TPP]/IC50 = KM(TPP)/KI.
[6] abbreviates: read-out: IC50 (μM ± SEM); [TPP] = 60 µM.
[7] abbreviates: calculated from KM(TPP) 3 µM using [TPP]/IC50 = KM(TPP)/KI.

By inhibition is commonly meant the change of the read-out against control, counted positive when it falls. One may read the IC50 as the midpoint of a concentration-inhibition curve. Broadly, the Ki is a dissociation constant, usually derived from enzyme kinetics or from competition with a known ligand. As for `COC(=O)CCCCc1cn(Cc2cnc(C)nc2N)nn1` [15b], the “% Inhibition (5:1)” value was 59 ± 3% at A. viridans PO (setting [2]) and 42 ± 4% on E. coli OGDH E1 (setting [2]). Also, the values for the inhibition at 250 µM at A. viridans PO (setting [3]) and at E. coli OGDH E1 (setting [3]) were 24 ± 4% and under 20%, respectively. The “vs TPP: affinity of the compound relative to that of TPP (= [TPP]/IC50)” value on A. viridans PO ([TPP] = 60 µM) came out at 0.28; on E. coli OGDH E1 ([TPP] = 60 µM), 0.17. Moreover, the IC50 on A. viridans PO (setting [4]) came to 214 ± 31 µM; on E. coli OGDH E1 (setting [4]), 353 ± 29 µM. For the same molecule, the Ki at A. viridans PO (calculated from KM(TPP) 5 µM using [TPP]/IC50 = KM(TPP)/KI; read-out: KI) and at E. coli OGDH E1 (calculated from KM(TPP) 3 µM using [TPP]/IC50 = KM(TPP)/KI; read-out: KI) was 18 µM in each case. In addition, in data set [1], the “membrane permeability in PAMPA (in words)” value (shortened to “membrane permeability”) is recorded as “membrane-permeable”. In data set [1], the Papp at 10 h, 500 µM is 6.31 ×10⁻⁶ cm/s. Moreover, the “Fa (fraction absorbed)” value in data set [1] amounted to 44%.

For `Cc1ncc(Cn2cc(CCCC(=O)[O-])nn2)c(N)n1.[K+]` [16a], the “% Inhibition (5:1)” value is listed as 59 ± 3% on A. viridans PO (setting [2]) and 49 ± 3% at E. coli OGDH E1 (setting [2]). For the same molecule, the inhibition at 250 µM is 22 ± 5% on A. viridans PO (setting [3]) and under 20% on E. coli OGDH E1 (setting [3]). Besides, the “vs TPP: affinity of the compound relative to that of TPP (= [TPP]/IC50)” value on A. viridans PO ([TPP] = 60 µM) is 0.30; on E. coli OGDH E1 ([TPP] = 60 µM), 0.19. The inhibition constant Ki at A. viridans PO (setting [5]) was 17 µM; on E. coli OGDH E1 (setting [7]) it was 16 µM. Also, the IC50 was 202 ± 34 µM on A. viridans PO (setting [6]) and 316 ± 57 µM at E. coli OGDH E1 (setting [6]). In addition, the “membrane permeability” value in data set [1] is “impermeable”. For the same molecule, in data set [1], the Papp at 10 h, 500 µM is 0.398 ×10⁻⁶ cm/s. Moreover, the “Fa (fraction absorbed)” value in data set [1] is on record as 3%.

As to `Cc1ncc(Cn2cc(CCCCC(=O)[O-])nn2)c(N)n1.[K+]` [16b], the “% Inhibition (5:1)” value at A. viridans PO (setting [2]) was found to be 63 ± 3%; at E. coli OGDH E1 (setting [2]), 54 ± 4%. For the same molecule, the inhibition at 250 µM on A. viridans PO (setting [3]) was 28 ± 4%; at E. coli OGDH E1 (setting [3]), 22 ± 5%. Moreover, the “vs TPP: affinity of the compound relative to that of TPP (= [TPP]/IC50)” value at A. viridans PO ([TPP] = 60 µM) is 0.35; at E. coli OGDH E1 ([TPP] = 60 µM) it was 0.22. Further, the Ki on A. viridans PO (setting [5]) and at E. coli OGDH E1 (setting [7]) was 14 µM throughout. The IC50 is 171 ± 29 µM on A. viridans PO (setting [6]) and 273 ± 44 µM at E. coli OGDH E1 (setting [6]). In addition, the “membrane permeability” value in data set [1] is given as “impermeable”. In data set [1], the Papp at 10 h, 500 µM was 0.398 ×10⁻⁶ cm/s. For the same molecule, the “Fa (fraction absorbed)” value in data set [1] was found to be 2%.
